Source: article PMC7321408, “One-Pot Multicomponent Synthesis and Bioevaluation of Tetrahydroquinoline Derivatives as Potential Antioxidants, α-Amylase Enzyme Inhibitors, Anti-Cancerous and Anti-Inflammatory Agents” (Molecules, 2020)
Converted amounts (≈) assume the structure as drawn.

What was measured:
[1] = test system: carrageenan-induced paw edema; assay: Carrageenan-induced paw edema (in vivo anti-inflammatory activity); parameters: species or system BALB/C albino mice; unit not given beside the values; settings: 10 mg/kg, mice, n = 5
Description: At 7–8 weeks old, male BALB/C albino mice (29–35 g), were purchased from The National Institute of Health (NIH), Islamabad, Pakistan. Five animals were housed per group and placed in a controlled temperature and humidity-controlled room (22 °C and 66 ± 5%, respectively) in a 12 h light–dark cycle and provided with water and food ad libitum. Ethical approval was taken from the bio-ethical committee of Quaid-I-Azam University (Approval No. BEC-FBS-QAU2018-119) and all protocols were conducted following the Ethical Guide to the Code of Practice for the Housing and Care of Animals Act 1986 (ARRIVE (Animal Research: Reporting In Vivo Experiments) guidelines). The anti-inflammatory activity of the synthesized compounds was evaluated by using the carrageenan-induced rat paw edema assay. To determine the dose response of tetrahydroquinoline derivatives, animals were first given a dose of 0.1, 1 and 10 mg/kg against 100 µL carrageenan (1% solution in normal saline)/paw. Treatment was given 60 min before carrageenan injection. Readings were taken at 4 h post carrageenan injection. The in vivo anti-inflammatory activity was performed following the procedure described by Koksal, et al. in 2017. Paw edema was induced by injecting 100 µL of 1% sterile carrageenan solution into the right hind paw of mice. Synthesized compounds (10 mg/kg), vehicle (saline with 2% DMSO) and drug (acetylsalicylic acid, ASA 10 mg/kg) were administered to the mice orally by gastric intubation 60 min before injecting carrageenan into the right hind paw. The decrease in edema was measured by vernier calipers every 2 h.

[2] = MTT cytotoxicity against raw macrophages; assay type: cell-based, albino rats; settings: albino, rat; for viability at 24 h, 1 µM / viability at 24 h, 10 µM / viability at 24 h, 50 µM / viability at 24 h, 100 µM: peritoneal macrophages (raw macrophages), raw macrophages, MTT, read-out: % Cell Viability; for IC50 at 24 h: primary peritoneal macrophages, mean ± SEM, n = 3
Description: The % cell viability of the synthetic library was evaluated in vitro by measuring the mitochondrial dehydrogenase activity (MTT test) on raw macrophages.
The cytotoxic potential was assessed by using an MTT 3-(4,5-dimethyl thiazole-2-yl)-2,5- diphenyl tetrazolium bromide assay. Briefly, macrophages were extracted from the peritoneal cavity of albino rats and plated at a density of 1 × 10^6 per well in a 96-well plate and incubated in a 5% CO2 incubator at 37 °C for 24 h. The cells were treated with various concentrations of the test compounds (100 µM, 50 µM, 10 µM and 1 µM) or vehicle alone. The test compounds were first dissolved in DMSO to make a 100 mM stock solution and then further dilutions were made from this stock solution. After 24 h of incubation, 20 µL of MTT (1 mg/mL in normal saline) was added into each well and incubated under the same conditions for 2 h. Mitochondrial succinate dehydrogenase converted MTT in live cells into purple formazan crystals. The formazan crystals were then solubilized in 100 µL DMSO, and the absorbance was measured at 570 nm. The % cell viability was calculated by the following formula; % cell viability = (abssample − absblank)/(abscontrol − absblank) × 100

[3] = DPPH free radical scavenging assay; settings: mean ± SEM, n = 3; for IC50 (DPPH radical scavenging): concentration to scavenge 50% of the DPPH radicals
Description: The % free radical scavenging activity (%FRSA) of the synthetic compounds was evaluated by the discoloration of an unstable DPPH reagent to the stable yellow-colored 2,2-diphenyl-1-picrylhydrazine molecule by accepting one electron from a donor antioxidant; the mechanism is shown in Scheme 2.
The % FRSA (free radical scavenging activity) of the synthetic compounds was determined by using the method of Tai et al. with slight modifications. The antioxidant potential was determined by detecting the capacity of the synthetic compounds to quench the DPPH free radicals. The synthetic compounds were taken in a 96-well plate at three-fold concentrations of 200 µg/mL, 66.6 µg/mL, 22.2 µg/mL and 7.4 µg/mL. DPPH free radicals were added to entire wells to make up the volume up to 200 µL. DMSO and ascorbic acid were taken as negative and positive controls, respectively. The absorbance was taken at 630nm using a microplate reader (ELx800 BioTek). The percentage of scavenging activity was calculated by the given formula:% scavenging activity = (1 − Abs/Abc) × 100
Abs = sample’s absorbance; Abc = control’s absorbance.

α-amylase enzyme = assay: α-Amylase enzyme inhibitory assay; assay type: biochemical; settings: 200 µg/mL
Description: An in vitro α-amylase enzyme inhibitory assay was performed by the standard protocol. Four milligrams per 1 mL of sample was prepared in DMSO. In each well of a 96-well plate, synthetic compounds were added to a final concentration of 200 µg/mL. To this, 15 μL phosphate buffer, […] α-amylase enzyme and 40 μL starch solution were added stepwise. The microplate was incubated at 50 °C for 30 min. […] The formula used to calculate the percent enzyme inhibition is:% Enzyme inhibition = [(As − An) ÷ (Ab − An] × 100
As = sample’s absorbance; An = negative’s absorbance; Ab = blank’s absorbance

[4] = test system: NO generated by LPS-induced macrophages; assay: Nitric oxide assay (Griess) in LPS-induced macrophages; assay type: cell-based, murine; settings: for activity at 1 µM / activity at 10 µM / activity at 50 µM / activity at 100 µM: 18 h, LPS 1 µg/mL, read-out: % NO Production (Mean ± SEM)
Description: A Griess reagent, a spectrophotometric determination of nitrite level, was carried out to measure the nitrite level in the conditioned medium of macrophages treated with lipopolysaccharide (LPS). Sodium nitrite (NaNO2) was used as a standard compound for the standard curve (Figure 8). The NO concentrations were obtained using the standard curve equation: y = 0.0083x + 0.0017, R^2 = 0.9999, where y is the absorbance at 540 nm and x is the NO concentration in µM. The inhibitory activity of the tested compounds towards NO generated by LPS-induced macrophages was obtained from the calculated value of x.
The anti-inflammatory effect of the synthesized compounds in murine macrophages was evaluated by using the Griess reaction method, described previously. In brief, 1 × 10^6 were plated in a 96-well plate and incubated in a 5% CO2 incubator at 37 °C for 24 h, pre-treated with different concentrations (100 µM, 50 µM, 10 µM and 1 µM) of synthetic compounds for another 2 h and challenged with LPS (1 µg/mL) for an additional 18 h. Equal volumes of Griess reagent (1% sulphanilamide in 50% phosphoric acid and 0.1% naphthyl ethylenediamine dihydrochloride in distilled water and vortexed) and culture medium were mixed and the absorbance was taken at 540 nm. Lipopolysaccharide (LPS) was taken as a blank and piroxicam was taken as a positive control. A t-test was applied to determine the significance of the results.

brine shrimp nauplii = assay: Brine shrimp lethality bioassay; assay type: in vivo; settings: 24 h, n = 3
Description: Brine shrimp eggs were hatched in a shallow rectangular plastic dish and filled with artificial seawater, which was prepared with a commercial salt mixture. In a 96-well plate, 150 µL of artificial seawater was added and 10 nauplii were added into this. Test compounds (400, 200, 100 and 50 µg/mL) were added into each well and the final volume was made up by adding the artificial seawater. The well plate was left uncovered under a lamp. The number of surviving shrimps were counted and recorded after 24 h. The test was repeated in triplicate. […] The percentage mortality (%M) was also calculated by dividing the number of dead nauplii by the total number and then multiplied by 100.

[5] = 0 h after carrageenan injection
[6] = 2 h after carrageenan injection
[7] = 4 h after carrageenan injection
[8] = 6 h after carrageenan injection
[9] = Mus musculus, Macrophage, 50 µM

| SMILES | Paw thickness [1, 5] | Paw thickness [1, 6] | Paw thickness [1, 7] | Paw thickness [1, 8] | viability at 24 h, 1 µM [2] | viability at 24 h, 10 µM [2] | viability at 24 h, 50 µM [2] | viability at 24 h, 100 µM [2] | IC50 at 24 h [2] | % DPPH Scavenging Activity ([3]; 7.4 µg/mL) | % DPPH Scavenging Activity ([3]; 22.22 µg/mL) | % DPPH Scavenging Activity ([3]; 66.66 µg/mL) | % DPPH Scavenging Activity ([3]; 200 µg/mL) | IC50 (DPPH radical scavenging) [3] | % inhibition of α-amylase enzyme (α-amylase enzyme) | activity at 1 µM ([4]; Mus musculus, Macrophage, 1 µM) | activity at 10 µM ([4]; Mus musculus, Macrophage) | activity at 50 µM [4, 9] | activity at 100 µM ([4]; Mus musculus, Macrophage) | LD50 ± SEM (brine shrimp lethality) (brine shrimp nauplii) | further results |
| --- | --- | --- | --- | --- | --- | --- | --- | --- | --- | --- | --- | --- | --- | --- | --- | --- | --- | --- | --- | --- | --- |
| c1ccc2c(c1)CCCN2CN1CCOCC1 [SF2, 4-((3,4-Dihydroquinolin—1(2H)-yl)methyl) morpholine] | 2.05 ± 0.05 | 2.11 ± 0.06 | 2.17 ± 0.03 | 2.23 ± 0.07 | 76 ± 0.46% | 70 ± 0.91% | 60 ± 0.91% | 50 ± 1.52% | 26.8 ± 0.3 µM | 17.44 ± 0.26% | 36.61 ± 0.22% | 58.39 ± 0.27% | 71.85 ± 0.27% | 42.55 ± 0.36 µg/mL (≈ 183 µM) | 79.97% | 32.2 ± 0.46% | 27.1 ± 0.36% | 22.1 ± 0.33% | 15.3 ± 0.29% | 141.4 ± 2.1 µg/mL | – |
| c1ccc2c(c1)CCCN2CN1CCCC1 [SF3, 1-(Pyrollidin-1-ylmethyl) -1,2,3,4-tetrahydroquinoline] | 2.05 ± 0.06 | 2.16 ± 0.05 | 2.22 ± 0.02 | 2.28 ± 0.07 | 83 ± 0.63% | 78 ± 0.74% | 72 ± 1.34% | 41 ± 1.07% | 29.1 ± 0.5 µM | 3.76 ± 0.125% | 9.85 ± 0.18% | 18.32 ± 0.91% | 27.19 ± 0.31% | 52.75 ± 0.28 µg/mL (≈ 244 µM) | – | 33.2 ± 0.47% | 29.6 ± 0.42% | 23.8 ± 0.39% | 19.7 ± 0.37% | 102 ± 1.98 µg/mL | – |
| CC(=O)N(CN1CCCc2ccccc21)c1ccc(O)cc1 [SF13, N-((3,4-dihydroquinolin-1(2H)-yl)methyl)-N-(4-hydroxyphenyl) acetamide] | 2.04 ± 0.07 | 2.18 ± 0.03 | 2.26 ± 0.06 | 2.31 ± 0.07 | 85 ± 0.93% | 82 ± 0.66% | 73 ± 1.01% | 60 ± 1.24% | 41.4 ± 0.69 µM | 1.98 ± 0.20% | 4.44 ± 0.18% | 11.78 ± 0.15 s % | 19.34 ± 0.34% | – | 10.51% | 25.1 ± 0.59% | 22.2 ± 0.52% | 15.6 ± 0.47% | 14.5 ± 0.44% | 204 ± 1.67 µg/mL | NO level scavenged (maximum) ([4]; 50 µM): 85%; inhibition at 1 µM ([4]; Mus musculus, Macrophage, 1 µM, read-out: NO maximum inhibition): 75% |
